“Also recorded” adds a separate entry of the source. One block for each compound: values may come before it.
Tests used:
hSTING^R232 [1] = biological target: T1, hSTING^R232 (Homo sapiens, UniProt Q86WV6, H232R); details: ITC, Chen laboratory; ref Zhang et al., 2013; cited from earlier work
hSTING^H232 = hSTING^H232 (Homo sapiens, UniProt Q86WV6); experiment: IFNB1 luciferase reporter in HEK293T cells, hSTING^H232; details: cGAMP isomers and c[di-GMP] with digitonin, DMXAA in medium
THP1 cells = experiment: CXCL10 ELISA in THP1 cells after cGAMP stimulation; format: cell-based, human; details: for EC50 comparison: Digitonin-mediated permeabilization
hSTING^H232 (aa 140–379) = hSTING^H232 (aa 140–379) (Homo sapiens, UniProt Q86WV6, H232R); experiment: ITC binding to hSTING^H232; details: complex printed as hSTING^H232 in b72 (Figure 4C)
mSting = details: ref Conlon et al., 2013; cited from earlier work
[2] = biological target: hSTING^H232/A162 (S162A mutant) (Homo sapiens, UniProt Q86WV6, S162A); experiment: ITC binding to S162A mutant of hSTING^H232
hSTING S162I mutant = hSTING S162I mutant (Homo sapiens, UniProt Q86WV6, S162I); experiment: IFNB1 luciferase reporter in HEK293T cells, hSTING S162I; format: cell-based; details: HEK293T cellular assay
hSTING^R232/A162 = hSTING^R232/A162 (Homo sapiens, UniProt Q86WV6, H232R/S162A); experiment: ITC binding to hSTING^R232/A162
hSTING = details: ref Conlon et al., 2013; cited from earlier work
BMDMs = experiment: Western blot of Tbk1 and Irf3 phosphorylation in BMDMs; format: cell-based, mouse; details: 2 and 4 hr after treatment, compared to the two other isomers
[3] = test system: bone-marrow-derived macrophages (BMDMs); details: 20 µM added to medium, 4 hr, relative to mock treatment
hSTING^R232 [4] = biological target: T1, hSTING^R232; experiment: IFNB1 luciferase reporter in HEK293T cells, hSTING^R232; details: digitonin delivery
hSTING^THP1 = hSTING^THP1 (Homo sapiens, UniProt Q86WV6, G230A/H232R/H72R/R293Q); experiment: IFNB1 luciferase reporter in HEK293T cells, hSTING^THP1; details: digitonin delivery, c[di-GMP] 5 and 10 µM
[5] = addition to medium without Digitonin, 18 hr

hSTING^H232, sequence (Q86WV6 whole entry): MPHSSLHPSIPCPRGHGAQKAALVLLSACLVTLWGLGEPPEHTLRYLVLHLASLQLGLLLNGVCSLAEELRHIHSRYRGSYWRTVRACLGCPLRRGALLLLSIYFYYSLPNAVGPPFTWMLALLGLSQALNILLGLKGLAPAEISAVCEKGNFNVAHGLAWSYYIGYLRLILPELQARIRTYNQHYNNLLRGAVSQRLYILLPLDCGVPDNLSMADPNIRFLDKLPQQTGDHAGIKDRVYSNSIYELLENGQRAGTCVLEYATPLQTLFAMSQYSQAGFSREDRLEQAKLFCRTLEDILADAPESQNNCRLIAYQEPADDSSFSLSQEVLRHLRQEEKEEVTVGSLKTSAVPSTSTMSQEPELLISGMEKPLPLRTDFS
hSTING^THP1, sequence (Q86WV6 whole entry H72R/G230A/H232R/R293Q): as the sequence (Q86WV6 whole entry) above, with H72R, G230A, H232R, R293Q counted along it
hSTING^H232/A162 (S162A mutant), sequence (Q86WV6 140-379 S162A): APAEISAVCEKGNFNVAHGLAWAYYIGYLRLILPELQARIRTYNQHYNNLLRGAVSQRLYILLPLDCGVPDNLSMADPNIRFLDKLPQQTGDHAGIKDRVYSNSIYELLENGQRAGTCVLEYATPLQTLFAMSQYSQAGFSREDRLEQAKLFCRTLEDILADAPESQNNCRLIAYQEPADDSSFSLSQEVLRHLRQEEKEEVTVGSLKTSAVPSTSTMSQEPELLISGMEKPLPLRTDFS
hSTING^R232/A162, sequence (Q86WV6 140-379 S162A/H232R): as the sequence (Q86WV6 140-379 S162A) above, with H93R counted along it
T1 sequence (Q86WV6 whole entry H232R): as the sequence (Q86WV6 whole entry) above, with H232R counted along it
hSTING^H232 (aa 140–379), sequence (Q86WV6 140-379 H232R): as the sequence (Q86WV6 140-379 S162A) above, with A23S, H93R counted along it
hSTING S162I mutant, sequence (Q86WV6 whole entry S162I): as the sequence (Q86WV6 whole entry) above, with S162I counted along it

SMILES: Nc1nc2c(ncn2[C@@H]2O[C@@H]3COP(=O)(O)O[C@H]4[C@@H](O)[C@H](n5cnc6c(N)ncnc65)O[C@@H]4COP(=O)(O)O[C@H]3[C@H]2O)c(=O)[nH]1 [c[G(3′,5′)pA(3′,5′)p]]
- Tbk1 and Irf3 protein phosphorylation (BMDMs): highest levels of Tbk1 and Irf3 protein phosphorylation
- Ccl5 mRNA level increase [3]: 38 fold
- Ifnb1 mRNA level increase [3]: 1024 fold
- Il6 mRNA level increase [3]: 2624 fold

SMILES: Nc1nc2c(ncn2[C@@H]2O[C@@H]3COP(=O)(O)O[C@H]4[C@@H](O)[C@H](n5cnc6c(=O)[nH]c(N)nc65)O[C@@H]4COP(=O)(O)O[C@H]3[C@H]2O)c(=O)[nH]1 [c[di-GMP]]
- IFN reporter response (hSTING^H232): nonresponsive
- IFN reporter response (hSTING^R232 [4]): residual response to high concentrations of c[di-GMP]
- IFN reporter response (hSTING^THP1): residual response to high concentrations of c[di-GMP]; also recorded: reduced IFN-pathway activation

Second part, led by results:

- EC50 comparison (THP1 cells): no difference in the EC50 values
- Kd (hSTING^H232 (aa 140–379)): 170 nM
SMILES: Nc1nc2c(ncn2[C@@H]2O[C@@H]3COP(=O)(O)O[C@@H]4[C@H](O)[C@@H](COP(=O)(O)O[C@@H]2[C@@H]3O)O[C@H]4n2cnc3c(N)ncnc32)c(=O)[nH]1
- Kd (hSTING^R232 [1]): 280 nM
- IFN reporter response (hSTING^H232): no significant differences in stimulation
- stimulation more effective than c[G(2′,5′)pA(3′,5′)p] (THP1 cells; [5]): 2.9 fold
- stimulation more effective than c[G(3′,5′)pA(3′,5′)p] (THP1 cells; [5]): 4.8 fold

- binding (ITC) ([2]; 25°C): binding
- stoichiometry N value of binding curve ([2]; expected 1): ~1.5
- IFN reporter response (hSTING^H232): nonresponsive
- IFN induction (hSTING S162I mutant): IFN induction was not observed
- binding (ITC) (hSTING^R232/A162; 25°C): binding
- stoichiometry N value of binding curve (hSTING^R232/A162; expected 1): ~1.5
SMILES: Cc1ccc2c(=O)c3cccc(CC(=O)O)c3oc2c1C [DMXAA, 5,6-dimethylxanthenone-4-acetic acid]
- activation of mSting (mSting): activates mSting
- effect on hSTING (hSTING): no effect on hSTING

- EC50 comparison (THP1 cells): no difference in the EC50 values
SMILES: Nc1nc2c(ncn2[C@@H]2O[C@@H]3COP(=O)(O)O[C@H]4[C@@H](O)[C@H](n5cnc6c(N)ncnc65)O[C@@H]4COP(=O)(O)O[C@@H]2[C@@H]3O)c(=O)[nH]1 [c[G(2′,5′)pA(3′,5′)p]]
